In assay [1] the test system is Gram-positive ATCC strains (E. faecalis 29212, S. aureus 25923 and 33591). Briefly: Therapeutic index, Gram-positive ATCC strains. The following applies: for Fold (GM peptide / GM tetrameric peptide): Gram-positive ATCC strains; for Gm, geometric mean of MIC50 values: Gram-positive ATCC strains 29212, 25923, 33591. The source says: We determined the therapeutic index of each peptide, which we defined as the ratio of Maximum Hemolytic Activity (Hmax) to MIC50 (Hmax/MIC50).
The therapeutic index (TI) is a ratio of the toxic dose of a substance to its therapeutically-active dose and can be calculated different ways (e.g., LD50/ED50). Here, we calculated a TI value for each peptide against all the Gram-positive or the Gram-negative ATCC strains, by dividing its Hmax by its MIC50 for the given group of strains. […] Additionally, to make our quantitative analysis more robust [geometric mean (Khachatryan et al., [2017]) and fold values], we have included MIC50 values for these peptides against S. aureus and K. pneumoniae that we previously obtained using the same assay, the M7-A7 method of the National Committee for Clinical Laboratory Standards (Leon-Calvijo et al., [2015]).

Assay [2] deals with E. faecalis ATCC-29212 (sensitive). Put plainly: Scanning electron microscopy of treated bacteria. The assay is classed as cell-based, Enterococcus faecalis. The following applies: 3 × MIC50, 2 h, 37°C. The procedure:
(§1) We observed bacterial morphology by SEM. The E. faecalis and P. aeruginosa strains were grown to mid-logarithmic phase, and adjusted spectrophotometrically to a McFarland standard of 0.5 (corresponding to ~1 × 10^8 CFU/mL). Subsequently, 1 mL of bacterial suspension was distributed into three tubes: one tube was treated with (RRWQWR)2KAhx at 3 × the MIC50; another tube, with (RRWQWR)4K2Ahx2C2 at the same concentration; and the third tube was left untreated, as a control. The samples were incubated aerobically at 37°C for 2 h, and the bacterial suspensions were centrifuged at 1,459 × g for 3 min and then, washed twice with Millonig's Phosphate Buffer (0.10 M, pH 7.4). For SEM, each sample was fixed with 1 mL of 2.5% glutaraldehyde at 4°C for 2 h. The fixed samples were dehydrated in an ethanol gradient (50, 70, 80, 90, and 100%) for 20 min and then, centrifuged at 1,459 × g for 10 min. The bacterial pellet was resuspended in 100% ethyl alcohol and air-dried. Finally, the slides were taped onto stubs, coated with gold using a Quorum Q150R sputter coater, and observed with an FEI Quanta 200-r microscope.
We used SEM to study the morphology of bacterial cells before and after treatment with either branched peptide (dimeric and tetrameric). […]

In assay [3] the test system is P. aeruginosa ATCC-10145 (sensitive). Briefly: Scanning electron microscopy of treated bacteria. The assay is classed as cell-based, Pseudomonas aeruginosa. To be noted: 3 × MIC50, 2 h, 37°C. The method, then: as §1
(§2) We used SEM to study the morphology of bacterial cells before and after treatment with either branched peptide (dimeric and tetrameric). To this end, each strain of E. faecalis and P. aeruginosa was first studied by SEM; then, independently treated in the exponential phase with either peptide at 3 × the corresponding MIC50 value for 2 h (except for the resistant E. faecalis strain, for which a peptide concentration of 200 μM was used); and finally, studied by SEM again.

In assay [4] the test system is P. aeruginosa ATCC-27853 (resistant). Put plainly: Scanning electron microscopy of treated bacteria. It is filed as cell-based, Pseudomonas aeruginosa. The following applies: 3 × MIC50, 2 h, 37°C. The method, then:
as §1, §2

The subject of assay [5] is Staphylococcus aureus ATCC 25923 (sensitive). To be noted: S. aureus ATCC 25923, sensitive strain; MIC50 previously obtained with the same assay (M7-A7); ref Leon-Calvijo et al., 2015; cited from earlier work. The text has this: Table 6 Therapeutic Index values for the RRWQWR-based peptides against the ATCC strains of HCAI-relevant bacteria. | column: Gram positive / MIC (μM) / ^d25923-^cS

The subject of assay [6] is Staphylococcus aureus ATCC 33591 (resistant). The following applies: S. aureus ATCC 33591, resistant strain; MIC50 previously obtained with the same assay (M7-A7); ref Leon-Calvijo et al., 2015; cited from earlier work. The source says:
Table 6 Therapeutic Index values for the RRWQWR-based peptides against the ATCC strains of HCAI-relevant bacteria. | column: Gram positive / MIC (μM) / ^e33591-^fR

Assay [7] concerns Klebsiella pneumonia ATCC 13883 (sensitive). To be noted: K. pneumoniae ATCC 13883, sensitive strain; MIC50 previously obtained with the same assay (M7-A7); ref Leon-Calvijo et al., 2015; cited from earlier work. The text has this: Table 6 Therapeutic Index values for the RRWQWR-based peptides against the ATCC strains of HCAI-relevant bacteria. | column: Gram negative / MIC (μM) / ^k13883-^cS

Assay [8] concerns Klebsiella pneumoniae ATCC 700603 (resistant). To be noted: K. pneumoniae ATCC 700603, resistant strain; MIC50 previously obtained with the same assay (M7-A7); ref Leon-Calvijo et al., 2015; cited from earlier work. The text has this:
Table 6 Therapeutic Index values for the RRWQWR-based peptides against the ATCC strains of HCAI-relevant bacteria. | column: Gram negative / MIC (μM) / ^l700603-^fR

The next assay concerns ATCC reference strains. Put plainly: Antibacterial activity against the ATCC reference strains, overall. The following applies: against the ATCC reference strains of E. faecalis and P. aeruginosa, all strains together. The assay is classed as cell-based. The method, then: We screened all five peptides against the ATCC reference strains and the clinical isolates according to Method M7-A7 of the National Committee for Clinical Laboratory Standards (CLSI, [2007]). The MIC50 and MBC values were determined using a broth microdilution and growth inhibition method previously reported by Leon-Calvijo et al. ([2015]), with some modifications (Wiegand et al., [2008]). Briefly, the MIC50 experiments comprised a liquid-inhibition growth assay in a sterile, untreated, 96-well flat-bottom tissue culture plate. […] The turbidity of the cultures was measured and adjusted spectrophotometrically to a McFarland standard of 0.5, and then diluted to a final concentration of 5 × 10^7 colony forming units (CFU) per well. […] Each concentration was evaluated in duplicate and each assay was performed in triplicate.
Wells containing Mueller Hilton broth with bacterial inoculum only served as bacterial-growth controls. […] The microplate was incubated for 24 h at 37°C, and growth inhibition was measured by monitoring the optical density at 620 nm (OD620). […]
To determine the MBC, an aliquot from each well of the MIC50 assay was spread onto Mueller Hilton agar. After 18 h at 37°C, the concentration that inhibited bacterial growth was determined. […]

These results are taken from article PMC5840262, “Design, Synthesis and Evaluation of Branched RRWQWR-Based Peptides as Antibacterial Agents Against Clinically Relevant Gram-Positive and Gram-Negative Pathogens” (Frontiers in Microbiology, 2018).

Converted amounts (≈) assume the structure as drawn. Bridge positions count the residues as written; N and C are the ends. Square brackets hold non-standard residues; d marks the D form. Ends that are not written are not given here. Peptide text beside a SMILES is read from it. I, II: the chains in the order shown. Ahx = NCCCCCC(=O)O

In the case of `N=C(N)NCCC[C@H](NC(=O)[C@H](Cc1c[nH]c2ccccc12)NC(=O)[C@H](CCC(N)=O)NC(=O)[C@H](Cc1c[nH]c2ccccc12)NC(=O)[C@H](CCCNC(=N)N)NC(=O)[C@@H](N)CCCNC(=N)N)C(=O)NCCCC[C@H](NC(=O)[C@H](CCCNC(=N)N)NC(=O)[C@H](Cc1c[nH]c2ccccc12)NC(=O)[C@H](CCC(N)=O)NC(=O)[C@H](Cc1c[nH]c2ccccc12)NC(=O)[C@H](CCCNC(=N)N)NC(=O)[C@@H](N)CCCNC(=N)N)C(=O)NCCCCCC(N)=O` [LfcinB (20–25)2] (I: H-RRWQWRK[Ahx]-NH2 / II: H-RRWQWR; amide I:7-II:C; N-terminus assumed), in assay [1], the “Fold (GM peptide / GM tetrameric peptide)” value is recorded as 3.1. In [1], this compound returned a Gm, geometric mean of MIC50 values of 9.8 µM. The “Morphology of bacterial cells by SEM after treatment” value in assay [2] was “random organization with morphological alterations”; in assay [3], “clear reduction in population and caused morphological alterations”; in assay [4] it was “marked drop in population and severe morphological alterations”. Besides, the MIC in assay [5] is 3.0 µM (≈ 6.59 µg/mL); in [6], 24.1 µM (≈ 52.9 µg/mL); in assay [7], 9.0 µM (≈ 19.8 µg/mL); in assay [8], 7.3 µM (≈ 16 µg/mL).

In the case of “(RRWQWR)4K2Ahx2C2 (disulfide) [LfcinB (20–25)4, branched tetrameric peptide (RRWQWR)4K2Ahx2C2, two dimers linked by a cysteine disulfide bridge]”, the “Fold (GM peptide / GM tetrameric peptide)” value in assay [1] was 1.0. In addition, the Gm, geometric mean of MIC50 values in assay [1] worked out at 3.1 µM. Also, the “Morphology of bacterial cells by SEM after treatment” value in assay [2] was “population decline, cell-size heterogeneity and cell-surface alterations in the form of protrusions”; in [3], “very heterogeneous population and to alterations in the cell surface”; in assay [4], “disintegrated and irregularly-shaped mucoid cells”. Also, the MIC in assay [5] was 1.7 µM; in assay [6], 5.9 µM; in assay [7] it was 12.0 µM; in assay [8], 6.2 µM.

With “RRWQWR-NH2 [LfcinB (20–25), reference compound]”, in the assay with ATCC reference strains, the MIC50 is > 200 µM.

As usually defined, the MIC is the lowest concentration found to suppress growth. One may read the MIC50 as the lowest concentration that inhibits either 50% of growth or 50% of the strains tested, depending on the study. Low values mean greater potency, high ones weaker potency.
